Entries after “also recorded” stand apart in the source; their conditions may differ.
Key:
[1] = Storage at defined relative atmospheric humidity (approx. 75% or 95%, then approx. 4%) with thermogravimetric analysis, weighing and X-ray powder diffractometry; assay type: physicochemical; conditions: for % pt during / % pt after / % pt (middle): vs before storage; for Form during / Form after / Form middle: X-ray powder diffractometry; for Laboratory after: storage step approx. 4 (±5) % r.h. approx. 20 h; for Laboratory during %: storage step approx. 75 (±5) % r.h. approx. 7 days; for Laboratory during: storage step approx. 95 (±5) % r.h. approx. 7 days
Description: Storage of the hydrochloride salts, which are not according to the invention (identified H1 to H3 in the following examples of compounds; for the synthesis see the subsequent experimental part), at room temperature over saturated sodium chloride solution results in a relative atmospheric humidity of approx. 75% (±5%). Storage of the samples at room temperature over saturated potassium sulfate solution results in a relative atmospheric humidity of approx. 95% (±5%).
Storage of the samples at room temperature over drying beads (blau+, Engelhardt, Nienburg) results in a relative atmospheric humidity of approx. 4% (±5%).
The samples were stored at approx. 75% relative atmospheric humidity for approx. 8.5 days. The samples were then stored at a relative atmospheric humidity of approx. 4% for a further approx. 6 h.
They were analyzed for their loss in weight by means of thermogravimetric analyses (amount of sample approx. 5-20 mg, heating rate approx. 10 K/min, heating range from approx. 25° C. to approx. 240° C.).
The approximate difference in the moisture content (in percentage points; % pt) from after the storage to before the particular storage step is stated.
In addition, the percentage change in the total weight of the sample occurring in the respective storage step was determined by weighing (“laboratory”).
The crystalline form was determined by means of X-ray powder diffractometry.
The samples were stored at approx. 95% relative atmospheric humidity for approx. 8.5 days. The samples were then stored at a relative atmospheric humidity of approx. 4% for a further approx. 6 h.
The approximate difference in the moisture content (in percentage points; % pt) from after the storage to before the storage is stated.
The samples were stored at approx. 75% relative atmospheric humidity for approx. 7 days. The samples were then stored at a relative atmospheric humidity of approx. 4% for a further approx. 2.5 days.
The approximate difference in the moisture content (in percentage points; % pt) from after the storage step to before the storage is stated.
The samples were stored at approx. 95% relative atmospheric humidity for approx. 7 days. The samples were then stored at a relative atmospheric humidity of approx. 4% for a further approx. 7 days.
Storage of the phosphate salts I-P according to the invention, called samples in the following, at room temperature over saturated sodium chloride solution results in a relative atmospheric humidity of approx. 75 (±5) % . Storage of the samples at room temperature over saturated potassium sulfate solution results in a relative atmospheric humidity of approx. 95 (±5) %.
Storage of the samples at room temperature over drying beads (blau+, Engelhardt, Nienburg) results in a relative atmospheric humidity of approx. 4 (±5) %.
The samples were stored at approx. 75 (±5) % relative atmospheric humidity for approx. 8.5 days. The samples were then stored at a relative atmospheric humidity of approx. 4 (±5) % for a further approx. 6 h.
The samples were stored at approx. 95 (±5) % relative atmospheric humidity for approx. 8.5 days. The samples were then stored at a relative atmospheric humidity of approx. 4 (±5) % for a further approx. 6 h.
The samples were stored at approx. 75 (±5) % relative atmospheric humidity for approx. 7 days. The samples were then stored at a relative atmospheric humidity of approx. 4 (±5) % for a further approx. 20 h.
The samples were stored at approx. 95 (±5) % relative atmospheric humidity for approx. 7 days. The samples were then stored at a relative atmospheric humidity of approx. 4 (±5) % for a further approx. 20 h.
Sample P3 was kept in the laboratory for approx. 55 minutes under ambient conditions before the second storage step.
The interpretation of the specified data is explained again in more detail by the example of the data for P1 given in the preceding Table 8:
Storage of 1: • first storage step: 95% atmospheric humidity • second storage step: 4% atmospheric humidity […]

[2] = Drying of form B of the phosphate salt in vacuo, physical form checked by X-ray powder diffractometry, thermal analysis and 1H NMR; assay type: physicochemical
Experimental: The form B was dried for 13 hours at 40° C. in vacuo.
The form B was dried for 24 hours at 40° C. in vacuo.
Form B was dried at 68° C. in a drying cabinet in vacuo for 3 days.

[3] = after approx. 75 (±5) % r.h. approx. 7 days
[4] = after approx. 95 (±5) % r.h. approx. 7 days
[5] = approx. 75 (±5) % r.h. approx. 7 days, then approx. 4 (±5) % approx. 20 h
[6] = approx. 75 (±5) % r.h. approx. 8.5 days, then approx. 4 (±5) % approx. 6 h
[7] = approx. 95 (±5) % r.h. approx. 7 days, then approx. 4 (±5) % approx. 20 h
[8] = approx. 95 (±5) % r.h. approx. 8.5 days, then approx. 4 (±5) % approx. 6 h
[9] = after approx. 75% r.h. approx. 7 days
[10] = after approx. 95% r.h. approx. 7 days
[11] = approx. 75% r.h. approx. 7 days, then approx. 4% approx. 2.5 days
[12] = approx. 75% r.h. approx. 8.5 days, then approx. 4% approx. 6 h
[13] = approx. 75% relative atmospheric humidity approx. 8.5 days, then approx. 4% approx. 6 h
[14] = approx. 95% r.h. approx. 7 days, then approx. 4% approx. 7 days
[15] = approx. 95% r.h. approx. 8.5 days, then approx. 4% approx. 6 h
[16] = storage step approx. 4% r.h. approx. 2.5 days, after 75% r.h. 7 days
[17] = storage step approx. 4% r.h. approx. 7 days, after 95% r.h. 7 days
[18] = storage step approx. 75% r.h. approx. 7 days
[19] = storage step approx. 95% r.h. approx. 7 days

Compound | % pt during [1, 3] | Form during [1, 3] | % pt during [1, 4] | Form during [1, 4] | % pt after [1, 5] | Form after [1, 5] | % pt [1, 6] | Laboratory (percentage change in total weight by weighing) [1, 6] | Form after [1, 6] | % pt after [1, 7] | Form after [1, 7] | % pt [1, 8] | Laboratory (percentage change in total weight by weighing) [1, 8] | Form after [1, 8] | Laboratory after ([1]; after 75% r.h. 7 days) | Laboratory after ([1]; after 95% r.h. 7 days) | Laboratory during % [1] | other results
COc1cccc([C@@]2(O)C[C@H](O)CC[C@@H]2CN(C)C)c1 (racemic) [Sample P1, (1RS,3RS,6RS)-6-dimethylaminomethyl-1-(3-methoxyphenyl)-cyclohexane-1,3-diol] | −0.21 % pt | form A | −0.19 % pt | form A | −0.04 % pt | form A | −0.05 % pt | −0.01% | form A | −0.02 % pt | form A | −0.22 % pt | +0.12% | form A | +0.07% | −0.04% | −0.08% | Weight loss TG (afterwards) ([1]; after second storage step at ca. 4% atmospheric humidity): −4.38%; Weight loss TG (intermediate) ([1]; after storage at 95% atmospheric humidity approx. 7 days): −4.55%; Weight loss TG (beforehand) ([1]; before storage, thermogravimetry approx. 25-240° C.): −4.36%
COc1cccc([C@@]2(O)C[C@H](O)CC[C@@H]2CN(C)C)c1 (racemic) [Sample P2, (1RS,3RS,6RS)-6-dimethylaminomethyl-1-(3-methoxyphenyl)-cyclohexane-1,3-diol] | −0.42 % pt | form A | −0.24 % pt | form A | −0.44 % pt | form A | −0.17 % pt | +0.06% | form A | −0.21 % pt | form A | −0.25 % pt | +0.02% | form A | +0.08% | −0.60% | +0.02% | Laboratory during [1]: +0.52%
COc1cccc([C@@]2(O)C[C@H](O)CC[C@@H]2CN(C)C)c1 (racemic) [Sample P3, (1RS,3RS,6RS)-6-dimethylaminomethyl-1-(3-methoxyphenyl)-cyclohexane-1,3-diol] | −0.25 % pt | form A | +0.21 % pt | form A | −0.33 % pt | form A | −0.24 % pt | −0.47% | form A | +0.27 % pt | form A | −0.25 % pt | −0.39% | form A | −0.75% | −0.04% | +0.23% | Laboratory during [1]: 5.33%
COc1cccc([C@@]2(O)C[C@H](O)CC[C@@H]2CN(C)C)c1 (racemic) [form B, (1RS,3RS,6RS)-6-dimethylaminomethyl-1-(3-methoxyphenyl)-cyclohexane-1,3-diol] |  |  |  |  |  |  |  |  |  |  |  |  |  |  |  |  |  | Change in the physical form on drying ([2]; 68° C. in a drying cabinet in vacuo for 3 days): converted into amorphous material; Change in the physical form on drying ([2]; 13 hours at 40° C. in vacuo): no changes in the physical form were observed; Change in the physical form on drying ([2]; 24 hours at 40° C. in vacuo): no changes in the physical form were observed
COc1cccc(C2(O)CC(O)CCC2CN(C)C)c1 (centres unmarked) [Sample H1, 6-dimethylaminomethyl-1-(3-methoxyphenyl)-1,3-dihydroxy-cyclohexane] |  |  |  |  |  |  |  |  |  |  |  |  |  |  |  |  |  | % pt (middle) [1, 9]: −2.73 % pt; Form middle [1, 9]: form A,; also recorded: form B,; also recorded: form C,; also recorded: form D; % pt (middle) [1, 10]: −4.88 % pt; Form middle [1, 10]: form B; % pt after [1, 11]: 0.53 % pt; Form after [1, 11]: form B,; also recorded: form A; % pt (difference in the moisture content, thermogravimetry, after vs before storage) [1, 12]: −1.22 % pt; Laboratory/% (percentage change in total weight by weighing) [1, 12]: +1.14%; Form after [1, 13]: form B, further; % pt after [1, 14]: −3.84 % pt; Form after [1, 14]: form B; % pt (difference in the moisture content, thermogravimetry) [1, 15]: −4.89 % pt; Laboratory/% (percentage change in total weight by weighing) [1, 15]: +4.99%; Form after [1, 15]: form B, further; Laboratory/% (after) [1, 16]: −1.24%; Laboratory/% (after) [1, 17]: −22.76%; Laboratory/% (middle) [1, 18]: 2.89%; Laboratory/% (middle) [1, 19]: +13.72%
COc1cccc(C2(O)CC(O)CCC2CN(C)C)c1 (centres unmarked) [Sample H2, 6-dimethylaminomethyl-1-(3-methoxyphenyl)-1,3-dihydroxy-cyclohexane] |  |  |  |  |  |  |  |  |  |  |  |  |  |  |  |  |  | % pt (difference in the moisture content, thermogravimetry, after vs before storage) [1, 12]: −2.85 % pt; Laboratory/% (percentage change in total weight by weighing) [1, 12]: +2.61%; Form after [1, 13]: form B, further; % pt (difference in the moisture content, thermogravimetry) [1, 15]: −4.95 % pt; Laboratory/% (percentage change in total weight by weighing) [1, 15]: +4.88%; Form after [1, 15]: form B, further
COc1cccc(C2(O)CC(O)CCC2CN(C)C)c1 (centres unmarked) [Sample H3, 6-dimethylaminomethyl-1-(3-methoxyphenyl)-1,3-dihydroxy-cyclohexane] |  |  |  |  |  |  |  |  |  |  |  |  |  |  |  |  |  | % pt (middle) [1, 9]: −4.75 % pt; Form middle [1, 9]: form B; % pt (middle) [1, 10]: −2.37 % pt; Form middle [1, 10]: form B; % pt after [1, 11]: 0.46 % pt; Form after [1, 11]: form B; % pt after [1, 14]: −0.49 % pt; Form after [1, 14]: form B; Laboratory/% (after) [1, 16]: +3.68%; Laboratory/% (after) [1, 17]: −9.19%; Laboratory/% (middle) [1, 18]: +0.02%; Laboratory/% (middle) [1, 19]: +4.34%
